Entries after “also recorded” stand apart in the source; their conditions may differ.
Legend:
[1] = system: ACE2 release from the plasma membrane of CHO cells expressing full-length human ACE2; test: Shedding of ACE2 from Chinese hamster ovary cells (ACE2 activity in medium, QFS assay); format: cell-based; settings: PMA 1 μM, 4 hr incubation
Procedure: ACE2 catalytic activity was measured by cleavage of a quenched fluorescent substrate (QFS), namely (7-methoxycoumarin-4-yl)-acetyl-Ala-Pro-Lys(2,4-dinitrophenyl) as published in Vickers et al, 2002. The substrate is kept as stock at 5 mg/ml (7.14 mM) at −20° C. in DMSO, diluted 14.28-fold in ACE2 buffer (100 mM Tris-HCl, 1 M NaCl, pH 6.5) for a 500 μM working stock for assay. Assays were performed in black 96-well microtiter plates with 100 μl/well sample and ACE2 buffer in a final volume of 200 μl per well. In a separate series of wells, 100 μl/well sample, […] ACE2 buffer, and 20 μl/well of the specific ACE2 activity inhibitor, MLN-4760 (Millenium Pharmaceuticals, Cambridge, Mass., USA) at 100 mM is added. 50 μM QFS (20 μl/well) is then added to all wells.
Reactions proceeded at 37° C. within a temperature-controlled fluorescence microplate reader (FLUOStar Optima, BMG Labtech, Offenburg, Germany) and continuous readings of the liberated fluorescence taken over a 4 hr period (λex=320 nm, λem =405 nm). Specific ACE2 activity was calculated by subtraction of fluorescence in the presence of MLN-4760 inhibitor from the fluorescence in the absence of the MLN-4760 inhibitor.
Full-length human ACE2 was expressed in Chinese hamster ovary (CHO) cells using a modified DEAE-Dextran transfection method. […]

HepG2 cells = test: Shedding of ACE2 from HepG2 cells; format: cell-based; settings: endogenous ACE2, phorbol ester treatment, data not shown

## CCCCCCCCCCCCCC(=O)O[C@@H]1[C@@H](C)[C@@]2(O)[C@@H](C=C(CO)C[C@]3(O)C(=O)C(C)=C[C@@H]23)[C@@H]2C(C)(C)[C@]12OC(C)=O [PMA]
[1]
  ACE2 release from the plasma membrane (ACE2 catalytic activity in medium): increased; also recorded: enhanced
[1]; listed as phorbol ester
  ACE2 release from the plasma membrane (ACE2 catalytic activity in medium): increased up to two-fold
HepG2 cells
  shedding of ACE2: increased up to two-fold
